Columns and labels:
Assay type in all cases: cell-based, human
M1 macrophages [1] = assay: Macrophage viability, CellTiter-Glo, M1; settings: 24 hr, BYbe 250-2 nM, Camptothecin, Staurosporine 5 μM
Protocol: (§1) Human PBMC derived from blood leukocyte platelet-apheresis cones (NHSBT Oxford) were banked as frozen aliquots. Prior to an assay being performed, 2 vials of frozen cells, each containing 5×10^7 cells in 1 ml, were thawed in a 37° C. water bath and then added to 50 ml complete media (RPMI 1640+2 mM GlutaMAX+1% Pen/Strep, all previous supplied by Invitrogen, +10% Fetal Bovine Serum (FBS), Sigma Aldrich). Cells were spun (500 g, 5 min, at RT) and re-suspended in 30 ml complete media to wash and spun again. Cells were resuspended in 20 ml MACS buffer (PBS, pH 7.2, 0.5% bovine serum albumin (BSA), and 2 mM EDTA, Sigma Aldrich) and counted on a ChemoMetec NucleoCounter NC-3000 to determine concentration and viability. PBMCs from one donor (UCB-Cones 802) was used in this assay.
(§2) Monocyte isolation was performed using the Pan Monocyte Isolation Kit (Miltenyi Biotec, cat no. 130-096-537) and LS columns (Miltenyi Biotec, cat no 130-042-401) according to manufacturer's instructions. 100 μl of cells were removed and stored on ice to check monocyte purity post isolation. […]
(§3) One microplate was incubated for a further 24 hours in 37° C. incubator with 5% CO2 before being used to assess cell viability with CellTiter-Glo®. […] The plate was then read on the BMG Labtech PHERAstar FSX microplate reader using the CellTiter-Glo program.

M2 macrophages [2] = assay: Macrophage viability, CellTiter-Glo, M2; settings: 24 hr, BYbe 250-2 nM, Camptothecin, Staurosporine 5 μM
Protocol: as §1, §2, §3

M1 macrophages [3] = assay: Caspase-3/7 induction, IncuCyte, M1; settings: over 6 days, BYbe 250-2 nM, Camptothecin, Staurosporine 5 μM
Protocol: (§4) Human PBMC derived from blood leukocyte platelet-apheresis cones (NHSBT Oxford) were banked as frozen aliquots. Prior to an assay being performed, 2 vials of frozen cells, each containing 5×10^7 cells in 1 ml, were thawed in a 37° C. water bath and then added to 50 ml complete media (RPMI 1640+2 mM GlutaMAX+1% Pen/Strep, all previous supplied by Invitrogen, +10% Fetal Bovine Serum (FBS), Sigma Aldrich). Cells were spun (500 g, 5 min, at RT) and re-suspended in 30 ml complete media to wash and spun again. Cells were resuspended in 20 ml MACS buffer (PBS, pH 7.2, 0.5% bovine serum albumin (BSA), and 2 mM EDTA, Sigma Aldrich) and counted on a ChemoMetec NucleoCounter NC-3000 to determine concentration and viability. PBMCs from one donor (UCB-Cones 802) was used in this assay. Monocyte isolation was performed using the Pan Monocyte Isolation Kit (Miltenyi Biotec, cat no. 130-096-537) and LS columns (Miltenyi Biotec, cat no 130-042-401) according to manufacturer's instructions. 100 μl of cells were removed and stored on ice to check monocyte purity post isolation. Isolated cells were stained with BV421 mouse anti-human CD14 (BD Biosciences, cat no. 563743) to check for purity of monocytes using FACS. M-CSF (Sigma Aldrich, cat no. SRP3110) and GM-CSF (R&D Systems, cat no. 215-GM/CF) were prepared at 100 μg/ml. Cells were prepared in M1 media (complete media+50 ng/ml GM-CSF) or M2 media (complete media+50 ng/ml M-CSF) at a concentration of 2.5×10^5 cells/ml. 200 μl cells were plated into two Corning 96 well Black polystyrene microplates (Sigma Aldrich) and incubated at 37° C., 5% CO2. Following a 3-day incubation at 37° C., 5% CO2, the plate was spun (500 g, 5 min, RT), buffer was aspirated, the cells were washed once with PBS and then resuspended in 200 μL of M1 media or M2 media. […] The caspase dye was measured with the green laser (350 ms) and the cytotox dye was measured with a red laser (650 ms). The green dye signal was analysed using Incucyte® Zoom2016B. […]

M2 macrophages [4] = assay: Caspase-3/7 induction, IncuCyte, M2; settings: over 6 days, BYbe 250-2 nM, Camptothecin, Staurosporine 5 μM
Protocol: as §4

Row | Compound | cell viability (CellTiter-Glo) (M1 macrophages [1]) | cell viability (CellTiter-Glo) (M2 macrophages [2]) | levels of Caspase-3/7 (M1 macrophages [3]) | levels of Caspase-3/7 (M2 macrophages [4])
1 | CC[C@@]1(O)C(=O)OCc2c1cc1n(c2=O)Cc2cc3ccccc3nc2-1 [Camptothecin] | reduced the viability | reduced the viability | significant levels | significant levels
2 | CN[C@@H]1C[C@H]2O[C@@](C)([C@@H]1OC)n1c3ccccc3c3c4c(c5c6ccccc6n2c5c31)C(=O)NC4 [Staurosporine] | little or no viable cells detected | little or no viable cells detected | very low | very low

— patent US20230374148A1, “BINDING MOLECULES THAT MULTIMERISE CD45” (UCB BIOPHARMA SRL, priority 2020, published 2023)
